PubChem BioAssay AID1963985 (Molecular Pharmacology Branch, DTP, NCI, 2024)

Tested on: 252836-082-R-J2-PDC tumor spheroids, viability
Experiment: Anticancer human tumor 252836-082-R-J2-PDC patient-derived head and neck squamous cell carcinoma cell line growth inhibition [PI3K]
Conditions: spheroids with HUVEC and MSC; for IC50: curve of first compound; for viability, T/C: stronger effect = lower value
Outline: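 Three cell types, namely tumor cells, endothelial cells and mesenchymal stem cells, formed each spheroid. Combinations with four PI3K inhibitors were screened at clinically achievable concentrations decreasing by half-log, and spheroid viability was recorded.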

[1] = second compound 0.0316 µM, first compound 0.0316 µM
[2] = second compound 0.0316 µM, first compound 0.1 µM
[3] = second compound 0.0316 µM, first compound 0.316 µM
[4] = second compound 0.0316 µM, first compound 1 µM
[5] = second compound 0.0316 µM, first compound 3.16 µM
[6] = second compound 0.0316 µM, first compound 10 µM
[7] = second compound 0.1 µM, first compound 0.0316 µM
[8] = second compound 0.1 µM, first compound 0.1 µM
[9] = second compound 0.1 µM, first compound 0.316 µM
[10] = second compound 0.1 µM, first compound 1 µM
[11] = second compound 0.1 µM, first compound 3.16 µM
[12] = second compound 0.1 µM, first compound 10 µM
[13] = second compound 0.316 µM, first compound 0.0316 µM
[14] = second compound 0.316 µM, first compound 0.1 µM
[15] = second compound 0.316 µM, first compound 0.316 µM
[16] = second compound 0.316 µM, first compound 1 µM
[17] = second compound 0.316 µM, first compound 3.16 µM
[18] = second compound 0.316 µM, first compound 10 µM
[19] = second compound 1 µM, first compound 0.0316 µM
[20] = second compound 1 µM, first compound 0.1 µM
[21] = second compound 1 µM, first compound 0.316 µM
[22] = second compound 1 µM, first compound 1 µM
[23] = second compound 1 µM, first compound 3.16 µM
[24] = second compound 1 µM, first compound 10 µM
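Further: spheroids exposed to agents for seven days before readout.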
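Wherever viability, T/C is given: percent of vehicle DMSO control viability so 100% = untreated growth.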

Which results are given for CNC(=O)c1ccc(N2C(=S)N(c3ccc(C#N)c(C(F)(F)F)c3)C(=O)C2(C)C)cc1F + CC(Nc1ncnc2nc[nH]c12)c1cc2cccc(Cl)c2c(=O)n1-c1ccccc1?
IC50 (second compound 0.0316 µM): > 10 µM; IC50 (second compound 0.1 µM): > 10 µM; IC50 (second compound 0.316 µM): > 10 µM; IC50 (second compound 1 µM): > 10 µM; IC50 (second compound 3.16 µM): > 10 µM; IC50 (second compound 10 µM): > 10 µM; viability, T/C [1]: 103%; viability, T/C [2]: 83.9%; viability, T/C [3]: 91.7%; viability, T/C [4]: 85.1%; viability, T/C [5]: 98.2%; viability, T/C [6]: 93.4%; viability, T/C [7]: 86.4%; viability, T/C [8]: 83.5%; viability, T/C [9]: 113%; viability, T/C [10]: 91.2%; viability, T/C [11]: 86.2%; viability, T/C [12]: 78.6%; viability, T/C [13]: 102%; viability, T/C [14]: 79.5%; viability, T/C [15]: 90.5%; viability, T/C [16]: 90.2%; viability, T/C [17]: 88.7%; viability, T/C [18]: 78%; viability, T/C [19]: 80.9%; viability, T/C [20]: 94.9%; viability, T/C [21]: 90.9%; viability, T/C [22]: 89.6%; viability, T/C [23]: 94%; viability, T/C [24]: 80.6%; viability, T/C (second compound 3.16 µM, first compound 0.0316 µM): 85.7%; viability, T/C (second compound 3.16 µM, first compound 0.1 µM): 73.2%; viability, T/C (second compound 3.16 µM, first compound 0.316 µM): 75.7%; viability, T/C (second compound 3.16 µM, first compound 1 µM): 74.3%; viability, T/C (second compound 3.16 µM, first compound 3.16 µM): 86.4%; viability, T/C (second compound 3.16 µM, first compound 10 µM): 62.2%; viability, T/C (second compound 10 µM, first compound 0.0316 µM): 63%; viability, T/C (second compound 10 µM, first compound 0.1 µM): 71.8%; viability, T/C (second compound 10 µM, first compound 0.316 µM): 70.9%; viability, T/C (second compound 10 µM, first compound 1 µM): 70.5%; viability, T/C (second compound 10 µM, first compound 3.16 µM): 69.8%; viability, T/C (second compound 10 µM, first compound 10 µM): 59.3%

Which IC50 (second compound 0.00316 µM) does the source give for Cn1nccc1Nc1nccc(-c2ccn(C(CO)c3ccc(Cl)c(F)c3)c(=O)c2)n1 (centres undefined) + COc1c(OCCCN2CCOCC2)ccc2c3n(c(=NC(=O)c4cnc(N)nc4)nc12)CCN3 here?
Its IC50 is > 10 µM.

And the IC50 (second compound 0.01 µM)?
The IC50 was > 10 µM.

And the IC50 (second compound 0.0316 µM)?
The IC50 was 4.37 µM.

What about the IC50 (second compound 0.1 µM) of the same molecule?
Its IC50 is < 0.0316 µM.

And the IC50 (second compound 0.316 µM)?
Its IC50 is < 0.0316 µM.

And the IC50 (second compound 1 µM)?
The IC50 was < 0.0316 µM.

What about the viability, T/C (second compound 0.00316 µM, first compound 0.0316 µM) of the same molecule?
Its viability, T/C is 99.2%.

What about the viability, T/C (second compound 0.00316 µM, first compound 0.1 µM) of the same molecule?
Its viability, T/C is 86.3%.

What about the viability, T/C (second compound 0.00316 µM, first compound 0.316 µM) of the same molecule?
The viability, T/C was 98%.

What about the viability, T/C (second compound 0.00316 µM, first compound 1 µM) of the same molecule?
The viability, T/C was 90%.

What about the viability, T/C (second compound 0.00316 µM, first compound 3.16 µM) of the same molecule?
The viability, T/C was 78.3%.

And the viability, T/C (second compound 0.00316 µM, first compound 10 µM)?
The viability, T/C was 70.3%.

And the viability, T/C (second compound 0.01 µM, first compound 0.0316 µM)?
Its viability, T/C is 77.4%.

And the viability, T/C (second compound 0.01 µM, first compound 0.1 µM)?
Its viability, T/C is 78.3%.

What about the viability, T/C (second compound 0.01 µM, first compound 0.316 µM) of the same molecule?
The viability, T/C was 81.7%.

What about the viability, T/C (second compound 0.01 µM, first compound 1 µM) of the same molecule?
Its viability, T/C is 79.1%.

And the viability, T/C (second compound 0.01 µM, first compound 3.16 µM)?
The viability, T/C was 75.8%.

What about the viability, T/C (second compound 0.01 µM, first compound 10 µM) of the same molecule?
The viability, T/C was 50.2%.

What about the viability, T/C [1] of the same molecule?
Its viability, T/C is 53%.

What about the viability, T/C [2] of the same molecule?
The viability, T/C was 65.4%.

What about the viability, T/C [3] of the same molecule?
Its viability, T/C is 56.3%.

What about the viability, T/C [4] of the same molecule?
The viability, T/C was 56.8%.

What about the viability, T/C [5] of the same molecule?
The viability, T/C was 57.8%.

What about the viability, T/C [6] of the same molecule?
Its viability, T/C is 31.1%.

What about the viability, T/C [7] of the same molecule?
The viability, T/C was 40.4%.

And the viability, T/C [8]?
The viability, T/C was 33.8%.

What about the viability, T/C [9] of the same molecule?
The viability, T/C was 38.5%.

And the viability, T/C [10]?
Its viability, T/C is 34.8%.

And the viability, T/C [11]?
Its viability, T/C is 31.9%.

What about the viability, T/C [12] of the same molecule?
Its viability, T/C is 19.5%.

What about the viability, T/C [13] of the same molecule?
Its viability, T/C is 15.8%.

And the viability, T/C [14]?
Its viability, T/C is 14.1%.

What about the viability, T/C [15] of the same molecule?
Its viability, T/C is 15.3%.

What about the viability, T/C [16] of the same molecule?
Its viability, T/C is 10.4%.

And the viability, T/C [17]?
Its viability, T/C is 7.12%.

What about the viability, T/C [18] of the same molecule?
The viability, T/C was 4.49%.

What about the viability, T/C [19] of the same molecule?
Its viability, T/C is 4.18%.

What about the viability, T/C [20] of the same molecule?
The viability, T/C was 4.13%.

What about the viability, T/C [21] of the same molecule?
Its viability, T/C is 3.93%.

What about the viability, T/C [22] of the same molecule?
The viability, T/C was 1.52%.

What about the viability, T/C [23] of the same molecule?
Its viability, T/C is 1.98%.

And the viability, T/C [24]?
Its viability, T/C is 0.32%.
